According to patent US20080201790A1, “Method and product for regulating cell responsiveness to external signals” (priority 1993, published 2008):

Legend:
L929 cells = experiment: Neutral red cell viability assay of L929 cells treated with TNFα and/or bFGF; assay type: cell-based, murine; settings: L929 cells
Method: In panel A cells were treated with the indicated concentrations of TNFα for 15 hours and were assayed for uptake of neutral red. In panel B cells were untreated (solid bars), treated with 0.5 ng/ml bFGF (dotted bars) or 5.0 ng/ml bFGF (hatched bars) and the indicated concentrations of TNFα for 18 hours. Cell viability was assessed by neutral red assay.
In panel A serum starved L929 cells were untreated or treated for 1 hour at 37° C. with the MEK-1 inhibitor (PD) and then unstimulated or stimulated with bFGF. MAPK activity was measured. In panel B L929 cells were untreated or treated for 1 hour at 37° C. with PD and then were untreated or treated with TNFα alone or in combination with bFGF for 18 hours. Cell viability was assessed by neutral red assay.
Cell lines and culture. L929 cells (ATCC CCL1 were maintained in Dulbecco's modified Eagle's medium with 5% newborn calf serum and 5% bovine calf serum (BCS) supplemented with 100 ug/ml streptomycin and 100 U/ml penicillin. The cells were grown in 10 cm dishes at 37° C. in 7.5% CO2. Cells were made quiescent where indicated by incubation in Dulbecco's modified Eagle's medium and 0.1% bovine serum albumin for 24 h. Recombinant murine TNFα and recombinant human bFGF (147aa) were from R&D Systems, Minneapolis, Minn. Cells were pretreated where indicated with the MEK-1 inhibitor PD#098059 (Parke-Davis Pharmaceutical Corp. Ann Arbor, Mich.) for 1 h at 37° C. Cells were stimulated by incubation with the indicated cytokine or growth factor for various times at 37° C. Stimulation was stopped by rinsing the plates twice with ice cold phosphate buffered saline (PBS) and lysing the cells in the appropriate lysis buffer. Cells were scraped from the plates and nuclei were pelleted for 10 min at 14,000 RPM in a microcentrifuge. JNK assay. JNK activity was measured using a solid state kinase assay in which glutathione S-transferase-c-Jun (1-79) (GST-JUN) cound to glutathione-Sepharose 4B beads was used to affinity purify JNK and then JNK activity was measured in an in vitro kinase assay using the sepharose bound GST-Jun as a substrate (Hibi, M., et al. (1993) Genes & Development 7:2135-2148). Stimulated or unstimulated cells were lysed in 0.5% Nonidet P-40, 20 mM HEPES pH 7.2, 100 mM NaCl, 2 mM dithiothreitol, 1 mM EDTA, 1.0 mM phenylmethylsulfonylfluoride, 1 μg/ml aprotinin and the nuclei pelleted. Lysates were normalized for protein content. JNK was affinity purified from 50-100 μg of cell lysate by the addition of 10 ul of GST-Jun sepharose slurry (2 μg GST-Jun). Binding to GST-Jun efficiently isolates the two major forms of JNK (p45 and p55) and under the conditions used JNK isolation was linear for 10-250 μg of cell lysate. The lysates were rotated at 4° C. for 1-3 h. Beads were washed twice in lysis buffer and then twice in PAN (10 mM PIPES, pH 7.0, 100 mM NaCl, 21 μg/ml aprotinin). Kinase reactions were carried out at 30° C. for 15 min in 20 mM Hepes pH 7.2, 20 mM β-glycerophosphate, 10 mM p-nitrophenyl phosphate, 10 mM MgCl2, 1 mM dithiothreitol, 50 μm sodium vanadate, 10 μCi γ^32P-ATP 4300 Ci/mmole. The kinase reaction was linear from 0-30 min. MAPK Assay MAPK activity was measured exactly as described previously (Gardner, A. M., et al. (1994) Meth. Enzymol. 238:258-270) with the exception that MonoQ FPLC fractionation was replaced by step elution from a DEAE-Sephacel column using 0.5 M NaCl in loading buffer. The eluate was assayed in triplicate using the epidermal growth factor receptor 662-681 peptide (EGFR662-681) as a selective substrate for MAPK activity (Heasley, L. E., et al. (1994) American Journal of Physiology (Renal Fluid Electrolyte Physiol. 36) 267:F366-F373). […]

JNK = JNK solid state kinase assay (GST-Jun) in L929 cells; assay type: cell-based, murine; settings: not shown
Method: (§1) In panel A cells were treated for 10 minutes with the indicated concentration of TNFα. JNK activation was measured using a solid phase kinase assay resulting in phosphorylation of GST-Jun. In […] the time course of MAPK activation is shown. MAPK was isolated from cell lysates on DEAE sephacel columns and MAPK activation was measured by phosphorylation of the EGFR peptide substrate. Panel C depicts the concentration curve of MAPK activation by TNFα. Cells were treated with the indicated concentration of TNFα and MAPK was assayed.
(§2) Cell lines and culture. L929 cells (ATCC CCL1 were maintained in Dulbecco's modified Eagle's medium with 5% newborn calf serum and 5% bovine calf serum (BCS) supplemented with 100 ug/ml streptomycin and 100 U/ml penicillin. The cells were grown in 10 cm dishes at 37° C. in 7.5% CO2. Cells were made quiescent where indicated by incubation in Dulbecco's modified Eagle's medium and 0.1% bovine serum albumin for 24 h. Recombinant murine TNFα and recombinant human bFGF (147aa) were from R&D Systems, Minneapolis, Minn. Cells were pretreated where indicated with the MEK-1 inhibitor PD#098059 (Parke-Davis Pharmaceutical Corp. Ann Arbor, Mich.) for 1 h at 37° C. Cells were stimulated by incubation with the indicated cytokine or growth factor for various times at 37° C. Stimulation was stopped by rinsing the plates twice with ice cold phosphate buffered saline (PBS) and lysing the cells in the appropriate lysis buffer. Cells were scraped from the plates and nuclei were pelleted for 10 min at 14,000 RPM in a microcentrifuge. JNK assay. JNK activity was measured using a solid state kinase assay in which glutathione S-transferase-c-Jun (1-79) (GST-JUN) cound to glutathione-Sepharose 4B beads was used to affinity purify JNK and then JNK activity was measured in an in vitro kinase assay using the sepharose bound GST-Jun as a substrate (Hibi, M., et al. (1993) Genes & Development 7:2135-2148). Stimulated or unstimulated cells were lysed in 0.5% Nonidet P-40, 20 mM HEPES pH 7.2, 100 mM NaCl, 2 mM dithiothreitol, 1 mM EDTA, 1.0 mM phenylmethylsulfonylfluoride, 1 μg/ml aprotinin and the nuclei pelleted. Lysates were normalized for protein content. JNK was affinity purified from 50-100 μg of cell lysate by the addition of 10 ul of GST-Jun sepharose slurry (2 μg GST-Jun). Binding to GST-Jun efficiently isolates the two major forms of JNK (p45 and p55) and under the conditions used JNK isolation was linear for 10-250 μg of cell lysate. The lysates were rotated at 4° C. for 1-3 h. Beads were washed twice in lysis buffer and then twice in PAN (10 mM PIPES, pH 7.0, 100 mM NaCl, 21 μg/ml aprotinin). Kinase reactions were carried out at 30° C. for 15 min in 20 mM Hepes pH 7.2, 20 mM β-glycerophosphate, 10 mM p-nitrophenyl phosphate, 10 mM MgCl2, 1 mM dithiothreitol, 50 μm sodium vanadate, 10 μCi γ^32P-ATP 4300 Ci/mmole. The kinase reaction was linear from 0-30 min. MAPK Assay MAPK activity was measured exactly as described previously (Gardner, A. M., et al. (1994) Meth. Enzymol. 238:258-270) with the exception that MonoQ FPLC fractionation was replaced by step elution from a DEAE-Sephacel column using 0.5 M NaCl in loading buffer. The eluate was assayed in triplicate using the epidermal growth factor receptor 662-681 peptide (EGFR662-681) as a selective substrate for MAPK activity (Heasley, L. E., et al. (1994) American Journal of Physiology (Renal Fluid Electrolyte Physiol. 36) 267:F366-F373). […] Cells were lysed by scraping in ice cold RIPA buffer (50 mM Tris-HCl, pH 7.2, 150 mM NaCl, 0.1% SDS, 0.5% sodium deoxycholate, 1.0% Triton X-100, 10 mM sodium pyrophosphate, 25 mM β-glycerophosphate, 2 mM sodium vanadate, 2.1 μg/ml aprotinin) and the nuclei were pelletted. […]

p42/p44 MAPK = experiment: MAPK assay (DEAE-Sephacel, EGFR662-681 peptide) in L929 cells; assay type: cell-based, murine; settings: L929 cells
Method: as §1
FIG. 26 depicts the activation of MAPK by bFGF in L929 cells. Serum starved L929 cells were stimulated for 10 min with the indicated concentration of bFGF.
as §2

MEK-1 = MEK-1 (Homo sapiens, UniProt Q02750); settings: Alessi et al. 1995; cited from earlier work
Sequence of MEK-1 (Q02750 whole entry, species assumed): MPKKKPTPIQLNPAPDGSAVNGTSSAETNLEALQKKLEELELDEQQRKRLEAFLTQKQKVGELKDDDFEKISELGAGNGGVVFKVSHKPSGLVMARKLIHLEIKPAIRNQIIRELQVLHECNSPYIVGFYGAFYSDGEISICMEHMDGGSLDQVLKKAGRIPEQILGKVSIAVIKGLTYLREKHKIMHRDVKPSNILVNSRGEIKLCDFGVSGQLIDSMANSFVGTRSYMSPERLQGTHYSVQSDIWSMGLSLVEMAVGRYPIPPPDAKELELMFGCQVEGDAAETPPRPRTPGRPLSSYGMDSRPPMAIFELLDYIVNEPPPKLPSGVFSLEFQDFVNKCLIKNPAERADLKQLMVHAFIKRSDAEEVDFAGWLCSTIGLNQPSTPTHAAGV

## COc1cccc(-c2cc(=O)c3ccccc3o2)c1N [PD #098059, reference compound]
L929 cells
  effect on TNFα-mediated cell death: had no effect on TNFα-mediated apoptosis
  effect on the protective action of bFGF against TNFα: inhibited the protective action of bFGF
JNK
  inhibition of JNK kinase / activation of JNK: did not inhibit JNK kinase or the activation of JNK
p42/p44 MAPK
  effect on bFGF stimulation of MAPK activity: inhibited bFGF stimulation of MAPK activity
MEK-1
  inhibition of MEK-1: inhibits the dual specificity protein kinase, MEK-1
